Assay results from ChEMBL document CHEMBL1121754 (J Med Chem, 1981).

Columns and labels:
[1] = Equilibrium constant for DNB complex formation; parameters: unit not given here
[2] = organism: Homo sapiens; experiment: Human hallucinogenic activity relative to mescaline; assay type: functional
[3] = Partition coefficient (logP); assay type: physicochemical; conditions: octanol/water
[4] = target: 5-hydroxytryptamine receptor 2B (Rattus norvegicus, UniProt P30994); experiment: Affinity against 5-hydroxytryptamine 2B receptor in the isolated rat stomach fundus; assay type: tissue-based; conditions: read-out: pA2 (converted)
5-hydroxytryptamine receptor 2B, sequence (P30994 whole entry): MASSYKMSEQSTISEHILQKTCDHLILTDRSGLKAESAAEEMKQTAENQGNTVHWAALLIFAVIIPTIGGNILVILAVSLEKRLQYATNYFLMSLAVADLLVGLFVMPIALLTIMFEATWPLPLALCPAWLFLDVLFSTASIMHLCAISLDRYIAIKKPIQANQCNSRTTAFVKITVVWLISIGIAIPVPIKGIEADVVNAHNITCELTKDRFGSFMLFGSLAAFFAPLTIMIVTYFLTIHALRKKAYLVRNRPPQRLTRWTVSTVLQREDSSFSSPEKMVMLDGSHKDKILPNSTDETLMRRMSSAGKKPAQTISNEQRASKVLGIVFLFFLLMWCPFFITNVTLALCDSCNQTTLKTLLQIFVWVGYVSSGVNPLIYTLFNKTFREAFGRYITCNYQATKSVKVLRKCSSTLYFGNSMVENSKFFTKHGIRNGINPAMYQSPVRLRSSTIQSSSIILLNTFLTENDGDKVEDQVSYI

[5] = organism: Oryctolagus cuniculus; experiment: Hyperthermic potency in rabbit relative to DOM; assay type: functional

Question: Which KDNB [1] does the source give for `CC(N)Cc1ccccc1` (stereo not drawn) here?
Answer: 0.55

Question: For `COc1cc(CC(C)N)cc(OC)c1OC` (stereo not drawn), which Relative activity [2] is on record?
Answer: 2.2

Question: What about the logP ([3]; read-out: logP) of the same molecule?
Answer: 1.48

Question: What about the Kb [4] of the same molecule?
Answer: 2510 nM

Question: What about the KDNB [1] of the same molecule?
Answer: 3.14

Question: What about the Relative activity [5] of the same molecule?
Answer: 3.6

Question: What does the source list for `COc1cc(OC)c(SC)cc1CC(C)N` (stereo not drawn)?
Answer: Relative activity [2]: 1; logP ([3]; read-out: logP): 2.22; Kb [4]: 1700 nM; Relative activity [5]: 2.8

Question: What does the source list for `COc1ccc(OC)c(CC(C)N)c1` (stereo not drawn)?
Answer: logP [3]: 1.72; logP ([3]; read-out: logP): 1.88

Question: With `COc1cc(CC(C)N)c(OC)cc1Br` (stereo not drawn) [BROLAMFETAMINE] as the molecule, how does the logP [3] read?
Answer: 2.54

Question: What about the logP ([3]; read-out: logP) of the same molecule?
Answer: 2.58

Question: What does the source list for `COc1cc(OC)c(CC(C)N)cc1C` (stereo not drawn)?
Answer: logP ([3]; read-out: logP): 2.31; Kb [4]: 2450 nM; Relative activity [5]: 0.9

Question: Which logP ([3]; read-out: logP) does the source give for `COc1cc(C)c(CC(C)N)cc1OC` (stereo not drawn) here?
Answer: 1.66

Question: And the Kb [4]?
Answer: 1380 nM

Question: And the Relative activity [5]?
Answer: 0.5

Question: For `COc1cccc(OC)c1CC(C)N` (stereo not drawn), which Kb [4] is on record?
Answer: 8130 nM

Question: What about the KDNB [1] of the same molecule?
Answer: 1.49

Question: For `COc1ccc(CC(C)N)cc1` (stereo not drawn) [PARA-METHOXYAMPHETAMINE], which Relative activity [2] is on record?
Answer: 4

Question: What about the logP ([3]; read-out: logP) of the same molecule?
Answer: 1.77

Question: What about the Kb [4] of the same molecule?
Answer: 6920 nM

Question: What about the KDNB [1] of the same molecule?
Answer: 1.02

Question: Which results are given for `COc1ccc(CC(C)N)c(OC)c1` (stereo not drawn)?
Answer: Relative activity [2]: 5; logP ([3]; read-out: logP): 1.75; Kb [4]: 2510 nM; KDNB [1]: 1.32; Relative activity [5]: 2.5

Question: With `COc1cc(OC)c(OC)cc1CC(C)N` (stereo not drawn) as the molecule, how does the Relative activity [2] read?
Answer: 17

Question: What about the logP [3] of the same molecule?
Answer: 1.1

Question: What about the logP ([3]; read-out: logP) of the same molecule?
Answer: 1.74

Question: And the Kb [4]?
Answer: 155 nM

Question: And the KDNB [1]?
Answer: 1.7

Question: And the Relative activity [5]?
Answer: 11.8

Question: For `COc1cc(OC)c(CC(C)N)cc1Br` (stereo not drawn), which Relative activity [2] is on record?
Answer: 4

Question: What about the logP ([3]; read-out: logP) of the same molecule?
Answer: 2.61

Question: And the Relative activity [5]?
Answer: 2.3

Question: For `COc1cccc(CC(C)N)c1` (stereo not drawn), which Kb [4] is on record?
Answer: 1200 nM

Question: What about the KDNB [1] of the same molecule?
Answer: 0.96

Question: With `COc1ccc(CC(C)N)c(OC)c1OC` (stereo not drawn) as the molecule, how does the Relative activity [2] read?
Answer: <2

Question: And the logP ([3]; read-out: logP)?
Answer: 1.36

Question: What about the Kb [4] of the same molecule?
Answer: 8510 nM

Question: And the KDNB [1]?
Answer: 1.7

Question: What about the Relative activity [5] of the same molecule?
Answer: <<0.3

Question: What does the source list for `CC(N)Cc1ccc2c(c1)OCO2` (stereo not drawn) [TENAMFETAMINE]?
Answer: logP ([3]; read-out: logP): 1.63; KDNB [1]: 0.68

Question: For `COc1cc(CC(C)N)c(OC)cc1C` (stereo not drawn) [DOM], which Relative activity [2] is on record?
Answer: 80

Question: And the logP [3]?
Answer: 2.24

Question: And the logP ([3]; read-out: logP)?
Answer: 2.08

Question: And the Kb [4]?
Answer: 75.9 nM

Question: And the Relative activity [5]?
Answer: 100

Question: For `COc1cc(OC)c(CC(C)N)c(OC)c1` (stereo not drawn), which Relative activity [2] is on record?
Answer: 10

Question: And the logP ([3]; read-out: logP)?
Answer: 1.57

Question: And the Kb [4]?
Answer: 525 nM

Question: What about the KDNB [1] of the same molecule?
Answer: 2.09

Question: What about the Relative activity [5] of the same molecule?
Answer: 3.1

Question: What does the source list for `COc1cc(SC)c(OC)cc1CC(C)N` (stereo not drawn)?
Answer: Relative activity [2]: 50; logP ([3]; read-out: logP): 2.17; Relative activity [5]: 53.9

Question: For `COc1cc(Br)c(CC(C)N)cc1OC` (stereo not drawn), which logP ([3]; read-out: logP) is on record?
Answer: 1.96

Question: And the Kb [4]?
Answer: 1780 nM

Question: What about the Relative activity [5] of the same molecule?
Answer: 3.4

Question: For `COc1ccc(CC(C)N)cc1OC` (stereo not drawn), which Relative activity [2] is on record?
Answer: <1

Question: And the logP [3]?
Answer: 1.2

Question: What about the logP ([3]; read-out: logP) of the same molecule?
Answer: 1

Question: And the Kb [4]?
Answer: 3550 nM

Question: What about the KDNB [1] of the same molecule?
Answer: 1.95

Question: And the Relative activity [5]?
Answer: <<0.3

Question: What does the source list for `COc1cc(CC(C)N)c(SC)cc1OC` (stereo not drawn)?
Answer: logP ([3]; read-out: logP): 1.71; Relative activity [5]: 1.7
